The subject of one series is Caco-2/TC7 cells. In words: Stimulation of Caco-2/TC7 cells by IL-1β, IL-8 secretion (ELISA). Type of series: cell-based, human. An excerpt:
1.1.1. The Caco-2/TC7 Cell Line • The Caco-2 cell line is derived from a human colon adenocarcinoma and represents a cell culture model of enterocytes lining the epithelium of the small intestinal. […] During the exponential growth phase (from seeding to confluence), the cells remain undifferentiated. At confluence, they can spontaneously (in the absence of differentiation inducers) differentiate and progressively polarize. The differentiation process, which is a growth-related mechanism, is maximal at the end of confluence (stationary phase of the growth curve). • The cells develop a brush border at the apical pole containing microvilli and with characteristic enterocytic enzymes, such as hydrolases. • In accordance with the published literature, the Caco-2/TC7 cells in our experiments were seeded at 10^5 cells/well (equivalent to 10-12×10^3 cells/cm^2) in 6-well plastic culture plates. The cells were maintained in a glucose-rich medium (high glucose in the DMEM GlutaMAX medium 4.5 g/I glucose) supplemented with 20% heat-inactivated foetal calf serum, 1% nonessential amino acids NEAA, and 1% penicillin streptomycin. The cells were grown at 37° C. in a 10% CO2/air atmosphere. The medium was changed every day. Under these conditions, the cells were confluent on day 6. On day 17, the cells were serum-starved, and were used on day 18.
1.2.1. Stimulation of Caco-2/TC7 with Cytokines • The Caco-2/TC7 cells were seeded in 6-well plates at 100,000 cells/well and grown for 18 days. On day 17, the cells were serum-starved, which means that the cell medium was replaced with a foetal calf serum-free medium, and used on day 18. • The stimulation medium was composed of a medium referred to as “starvation medium”, i.e. without foetal calf serum (DMEM GlutaMAX, 1% NEAA, 1% penicillin-streptomycin) with 100 μM of 2-HQ. The cells were incubated for 18 h at 37° C. with 2 ml of stimulation medium containing 0.1% DMSO (negative control) or stimulation medium containing the compounds tested at desired concentrations, with or without proinflammatory cytokines to induce an inflammation. To induce the inflammation, either the IL-1β at 25 ng/ml or the combination of TNF-α and IFN-γ at 50 ng/ml each were used. After 18 h, the supernatants were collected and stored at −80° C. before analysis by ELISA test. The cells were washed with 1 ml of PBS 1×/well, and lysed in 100 μl of PBS 1× containing 1% Triton X-100. The cells were harvested by scraping and stored at −80° C. before the quantification of the protein. The dosing of the LDH was performed immediately before freezing. • All the experiments on the cells were performed in triplicates.
1.2.4. Quantification of the Human Cytokines by ELISA • The levels of the proinflammatory cytokine IL-8 produced by the cells were determined in the cell supernatants and/or cell lysates using the commercially available IL-8 ELISA detection kit (Duoset Human C×CL8/IL-8, ref. DY208) provided by R & D Systems (Minneapolis, Minn., USA) according to the instructions of the manufacturer. • All the cytokine levels were first normalized to the protein content determined in the corresponding cell lysates. Then, to compare the experiments, they could be further normalized using the activated control condition (DMSO+cytokines) as the 100% response.
On the technique in general: An ELISA detects its analyte on a solid surface through an enzyme-linked reagent.

In another series the test system is Raw 264.7 murine cells. In words: Stimulation of Raw 264.7 murine cells by IFN-γ/LPS, IL-6 secretion (ELISA). The class given is cell-based. Particulars: for activity on IFN-γ/LPS-stimulated Raw 264.7 cells compared with natural 3-oxo-C12-HSL: 1-50 μM range. The text has this:
1.1.2. The Raw 264.7 Cell Line • The Raw 264.7 cell line consists of murine cells of macrophage type derived from cell line transformed by the virus of the Abelson leukaemia and providing from BALB/c mice. This cell line is very often used as a model of macrophages in vitro. The Raw 264.7 cells are capable of a phagocytosis and a pinocytosis, can kill the target cells by antibody-dependent cytotoxicity, and secrete a wide range of inflammatory cytokines as well as nitric oxide (NO). In addition, the Raw 264.7 cells are a very convenient cell line: the cells grow rapidly, appreciate the small diameter wells, and should be used before confluence. These conditions make it an advantageous line for the compound screening.
The cells were used between the passages 13 and 26. • The Raw 264.7 cells used are from the ATCC bank. They were grown in DMEM supplemented with 10% heat-inactivated foetal calf serum and 1% L-glutamine to 200 mM, and maintained at 37° C. with a 5% CO2/air atmosphere. The medium was changed every two days.
1.2.2. Stimulation of Raw 264.7 with LIPS and IFN-γ • Raw 264.7 cells were seeded in 12-well plates at 75,000 cells/well, or 24-well plates at 40,000 cells/well, to reach 80-90% confluence after 3 days of culture. […] The cells were harvested by scraping in 100 μL of PBS 1×/well and stored at −80° C. before the quantification of the total protein. […]
1.2.5. Quantification of the Murine Cytokines • The levels of IL-6 murine cytokines produced by cells were determined in cell supernatants or lysates using the commercially available “BD OptEIA Mouse IL-6 ELISA Set” from BD Biosciences (San Jose, Calif., USA, ref. 555240). All the ELISA kits were used according to the instructions of the manufacturer. • The cytokine rates were first normalized to the protein content determined in the corresponding cell lysates. […]

Structures are written as SMILES.

With `CCCCCCCCCC(=O)CC(=O)N[C@H]1CCCC[C@@H]1O` [I-2, N-[(1S,2S)-2-hydroxycyclohexyl]-3-oxo-dodecanamide], the “activity on IL-1β-stimulated Caco-2/TC7 cells compared with natural 3-oxo-C12 HSL” value with Caco-2/TC7 cells (1-50 μM range) is “an activity equivalent to that of the natural 3-oxo-C12 HSL”. Also, the “activity on IFN-γ/LPS-stimulated Raw 264.7 cells compared with natural 3-oxo-C12-HSL” value in the series with Raw 264.7 murine cells is given as “more active than the reference molecule 3-oxo-C12-HSL”.
The matching figures for `CCCCCCCCCC(=O)CC(=O)N[C@H]1CCCC[C@H]1O` [I-4, N-[(1S,2R)-2-hydroxycyclohexyl]-3-oxo-dodecanamide]: “an activity equivalent to that of the natural 3-oxo-C12 HSL” and “a higher activity than the natural 3-oxo-C12 HSL”.
As to `CCCCCCCCCC(=O)CC(=O)Nc1cc(Cl)ccc1O` [I-6, N-(5-chloro-2-hydroxyphenyl)-3-oxododecanamide], the “activity on IL-1β-stimulated Caco-2/TC7 cells compared with natural 3-oxo-C12 HSL” value in the series on Caco-2/TC7 cells (10-100 μM range) is on record as “a significantly higher activity than that of the natural 3-oxo-C12 HSL”. Further, the “activity on IFN-γ/LPS-stimulated Raw 264.7 cells compared with natural 3-oxo-C12 HSL” value in the series with Raw 264.7 murine cells (10-50 μM range) was “a significantly higher activity than that of the natural 3-oxo-C12 HSL”.

The values above are taken from US20220411397A1, “ANALOGUES OF N-ACYL-HOMOSERINE LACTONES AND PHARMACEUTICAL COMPOSITION COMPRISING SAME” (SORBONNE UNIVERSITE, priority 2019, published 2022).
